Data from PubChem BioAssay AID192 (DTP/NCI, 2004).
Values joined by “and” are separate entries in the source; they are usually repeats but may differ in a detail not shown here. Equal entries are not always repeated. Toxic doses and inconclusive results are not listed. The calls were made as follows: active = survival T/C of 150% or more; inactive = T/C below 125% in these data.

System: BDF1 mice, B16 melanoma ip, median survival T/C
Experiment: NCI In Vivo Anticancer Drug Screen. Data for tumor model B16 Melanoma (intraperitoneal) in B6D2F1 (BDF1) mice
Conditions: endpoint: median survival time, higher = longer survival
Outline: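 Antitumor activity is assessed in mice bearing a transplanted tumor, with survival or tumor size compared against vehicle-dosed controls and expressed as T/C.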

[1] = dose: 50.0 mg/kg/injection, schedule: Q01DX009 (ip), vehicle: Klucel (hydroxypropylcellulose) (HPC)
[2] = dose: 100.0 mg/kg/injection, schedule: Q01DX009 (ip), vehicle: Klucel (hydroxypropylcellulose) (HPC)
[3] = dose: 200.0 mg/kg/injection, schedule: Q01DX009 (ip), vehicle: Klucel (hydroxypropylcellulose) (HPC)
[4] = dose: 100.0 mg/kg/injection, schedule: Q04DX003 (ip), vehicle: Klucel (hydroxypropylcellulose) (HPC)
[5] = dose: 200.0 mg/kg/injection, schedule: Q04DX003 (ip), vehicle: Klucel (hydroxypropylcellulose) (HPC)
[6] = dose: 50.0 mg/kg/injection, schedule: Q01DX009 (ip), vehicle: saline with Tween-80
[7] = dose: 100.0 mg/kg/injection, schedule: Q01DX009 (ip), vehicle: saline with Tween-80
[8] = dose: 25.0 mg/kg/injection, schedule: Q01DX009 (ip), vehicle: Klucel (hydroxypropylcellulose) (HPC)
[9] = dose: 400.0 mg/kg/injection, schedule: Q01DX009 (ip), vehicle: Klucel (hydroxypropylcellulose) (HPC)

Measured: T/C

COc1c(NC(=O)CC(C)=O)cccc1NC(=O)CC(C)=O
inactive: [1] 120 % of control | [2] 104 % of control | [3] 97 % of control

CCN(C(=O)Nc1ccc(OC)cc1)c1ccccc1C
inactive: [4] 102 % of control | [5] 102 % of control | dose: 400.0 mg/kg/injection, schedule: Q04DX003 (ip), vehicle: Klucel (hydroxypropylcellulose) (HPC) 102 % of control

CN(C)CC1CCCCN1 (centres undefined)
inactive: dose: 50.0 mg/kg/injection, schedule: Q01DX009 (ip), vehicle: saline 100 % of control | dose: 100.0 mg/kg/injection, schedule: Q01DX009 (ip), vehicle: saline 100 % of control | dose: 200.0 mg/kg/injection, schedule: Q01DX009 (ip), vehicle: saline 100 % of control

Clc1ccc(C(Cl)(Cl)Cl)cc1Cl
inactive: [1] 103 % of control | dose: 50.0 mg/kg/injection, schedule: Q04DX003 (ip), vehicle: Klucel (hydroxypropylcellulose) (HPC) 102 % of control | [2] 92 % of control | [4] 102 % of control | [3] 96 % of control | [5] 119 % of control

Nc1ccc(OS(=O)(=O)c2ccccc2)cc1
inactive: [6] 97 % of control | [7] 100 % of control | dose: 200.0 mg/kg/injection, schedule: Q01DX009 (ip), vehicle: saline with Tween-80 101 % of control | dose: 400.0 mg/kg/injection, schedule: Q01DX009 (ip), vehicle: saline with Tween-80 90 % of control

CCC[CH2][Sn]1([CH2]CCC)[O]OC(c2ccccc2)[O]1 (centres undefined)
inactive: dose: 0.19 mg/kg/injection, schedule: Q01DX009 (ip), vehicle: Klucel (hydroxypropylcellulose) (HPC) 98 % of control | dose: 0.38 mg/kg/injection, schedule: Q01DX009 (ip), vehicle: Klucel (hydroxypropylcellulose) (HPC) 87 % of control | dose: 0.75 mg/kg/injection, schedule: Q01DX009 (ip), vehicle: Klucel (hydroxypropylcellulose) (HPC) 107 % of control | dose: 1.5 mg/kg/injection, schedule: Q01DX009 (ip), vehicle: Klucel (hydroxypropylcellulose) (HPC) 102 % of control | dose: 3.0 mg/kg/injection, schedule: Q01DX009 (ip), vehicle: Klucel (hydroxypropylcellulose) (HPC) 101 % of control | dose: 3.0 mg/kg/injection, schedule: Q01DX009 (ip), vehicle: saline with Tween-80 102 % of control

CN(C)CCCNC(=S)S
inactive: dose: 6.25 mg/kg/injection, schedule: Q01DX009 (ip), vehicle: saline 100 % of control | dose: 12.5 mg/kg/injection, schedule: Q01DX009 (ip), vehicle: saline 97 % of control | dose: 12.5 mg/kg/injection, schedule: Q04DX003 (ip), vehicle: saline 111 % of control | dose: 25.0 mg/kg/injection, schedule: Q01DX009 (ip), vehicle: saline 110 % of control | dose: 25.0 mg/kg/injection, schedule: Q04DX003 (ip), vehicle: saline 111 % of control | dose: 50.0 mg/kg/injection, schedule: Q04DX003 (ip), vehicle: saline 94 % of control

Nc1ncc(CNc2ccc(C(=O)NC(CCC(=O)O)C(=O)O)cc2)c(N)n1 (centres undefined)
inactive: dose: 3.12 mg/kg/injection, schedule: Q01DX009 (ip), vehicle: Klucel (hydroxypropylcellulose) (HPC) 107 % of control | dose: 6.25 mg/kg/injection, schedule: Q01DX009 (ip), vehicle: Klucel (hydroxypropylcellulose) (HPC) 103 % of control | dose: 12.5 mg/kg/injection, schedule: Q01DX009 (ip), vehicle: Klucel (hydroxypropylcellulose) (HPC) 111 % of control | [8] 114 % of control | [1] 108 % of control

COc1ccccc1N=Nc1c(O)ccc2ccccc12
inactive: dose: 25.0 mg/kg/injection, schedule: Q01DX009 (ip), vehicle: saline with Tween-80 101 % of control | [6] 112 % of control | [7] 108 % of control

COc1ccc(-c2nc3cc(Cl)ccc3c(=O)o2)cc1
inactive: [2] 101 % of control | [3] 115 % of control

CC(=O)N(C)N(Cc1ccc(C#N)cc1)C(C)=O
inactive: [8] 98 % of control | [1] 96 % of control | [2] 99 % of control | [3] 98 % of control | [9] 95 % of control

Cc1cccc(C)c1NS(=O)(=O)c1ccc(Cl)cc1
inactive: [8] 99 % of control | [1] 97 % of control | [2] 99 % of control and 104 % of control | [9] 116 % of control

CC(C)Nc1ncnc2[nH]ncc12
inactive: dose: 1.0 mg/kg/injection, schedule: Q01DX009 (ip), vehicle: Klucel (hydroxypropylcellulose) (HPC) 96 % of control | dose: 2.0 mg/kg/injection, schedule: Q01DX009 (ip), vehicle: Klucel (hydroxypropylcellulose) (HPC) 105 % of control | dose: 4.0 mg/kg/injection, schedule: Q01DX009 (ip), vehicle: Klucel (hydroxypropylcellulose) (HPC) 94 % of control | dose: 8.0 mg/kg/injection, schedule: Q01DX009 (ip), vehicle: Klucel (hydroxypropylcellulose) (HPC) 102 % of control
